The record followed here is PMC12866797, “Targeting DESI2 as a Novel Therapeutic Strategy for JAK2‐Mutant Leukemias” (Advanced Science, 2025).

Where only a bound is given, the exact number is not on record here.

Test [1] has as its target T1, DESI2 (Homo sapiens, UniProt Q9BSY9).
T1 construct: residues 1-194, pET28a vector, E. coli BL21 (DE3), Ni-NTA purified
The test can be described thus: Ub-AMC fluorescence assay, initial rate. The format is biochemical.

The next test concerns the target JOSD1 (Homo sapiens, UniProt Q15040). Description: Ub-Rho fluorescence assay. The format is biochemical.
Test [2] concerns the target T1, DESI2. The test can be described thus: thermal shift assay. The format is binding. The settings on record: 100 µM compound.

T1 sequence (Q9BSY9 whole entry, the tested form may be a part): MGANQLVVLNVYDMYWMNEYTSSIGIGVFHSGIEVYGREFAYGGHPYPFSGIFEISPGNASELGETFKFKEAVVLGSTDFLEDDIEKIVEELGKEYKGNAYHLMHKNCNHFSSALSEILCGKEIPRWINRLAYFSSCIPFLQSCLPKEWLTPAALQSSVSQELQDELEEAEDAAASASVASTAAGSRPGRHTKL

For the compound `N#CN1CC[C@H](C(=O)Nc2nc3cc(-c4ccc5c(c4)OCO5)ccc3s2)C1` [WWQ-03-012], the IC50 at DESI2 [1] is 47.3 nM; against JOSD1, above 10000 nM. Also, at DESI2 [2], the dTm came to 3.5 °C.

As a reminder, the IC50 is the point on the concentration scale where inhibition reaches its midpoint.
